Values of other authors in patent US7119205B2, “Thienopyridones as AMPK activators for the treatment of diabetes and obesity” (Abbott Laboratories, priority 2003, dated 2006).

Tested on: ob/ob and db/db mice
Details: 8 day administration

NC(=O)c1ncn([C@@H]2O[C@H](CO)[C@@H](O)[C@H]2O)c1N [AICAR]
reduction of blood glucose: 35%
